The text below walks through data of patent US20080119412A1, “Polypeptides for Modulating Binding of Trp Channel Proteins and Trp- Associated Proteins” (NoNO Inc., priority 2003, published 2008).

This assay addresses T1, ZO-1 d2 (Homo sapiens, UniProt Q07157, DEL264-264).
T1 construct: made in house; host or cells: E. coli (DH5alpha, BL21 or JM109)
T1 sequence (Q07157 with tags, fused parts or gaps DEL264-264): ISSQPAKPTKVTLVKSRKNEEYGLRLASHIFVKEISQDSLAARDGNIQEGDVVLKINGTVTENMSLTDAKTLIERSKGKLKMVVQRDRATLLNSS
Put plainly: G3 assay titration, GST-PDZ fusion / biotinylated peptide. It counts as binding. In a few lines:
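ELISA with anti-GST-captured GST-PDZ fusions (5 μg/ml), probed by biotinylated Tat-TRPM7 C-terminal peptide precomplexed 20 min with HRP-streptavidin. Binding ran 30 min at room temperature; TMB read at 450 nm. Peptide was titrated from 0.002 to 2 μM and data fitted to a binding equation.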

Residues, ends and D or L forms follow the SMILES beside them. *: point of attachment. Biotin = O=C1N[C@H]2[C@H](CS[C@H]2CCCCC(=O)*)N1

In general, EC50 refers to the concentration needed to bring the measured effect to its halfway point. In the case of `CSCC[C@H](NC(=O)[C@H](CC(C)C)NC(=O)[C@H](CCCNC(=N)N)NC(=O)[C@@H](NC(=O)[C@H](CO)NC(=O)[C@H](CC(N)=O)NC(=O)[C@@H](NC(=O)[C@H](CO)NC(=O)[C@H](CCCNC(=N)N)NC(=O)[C@H](CCCNC(=N)N)NC(=O)[C@H](CCCNC(=N)N)NC(=O)[C@H](CCC(N)=O)NC(=O)[C@H](CCCNC(=N)N)NC(=O)[C@H](CCCNC(=N)N)NC(=O)[C@H](CCCCN)NC(=O)[C@H](CCCCN)NC(=O)[C@H](CCCNC(=N)N)NC(=O)CNC(=O)[C@H](Cc1ccc(O)cc1)NC(=O)CCCC[C@@H]1SC[C@@H]2NC(=O)N[C@@H]21)[C@@H](C)O)C(C)C)C(=O)N[C@@H](CC(C)C)C(=O)O` [Tat-TRPM7 peptide] (Biotin-YGRKKRRQRRRSTNSVRLML-OH), the EC50 came to 0.033 µM.
